Results taken from patent US20250163057A1, “DCN-1 MODULATING COMPOUNDS AND METHODS OF USE THEREOF” (Cellarity, Inc., priority 2023, published 2025).

Target: DCN1 protein (Homo sapiens (Human), UniProt Q96GG9)
Assay: Intact Protein MS Analysis with the RapidFire-TOF System (covalent adduct formation)
Assay type: binding
Conditions: MS Emax; 400 nM DCN1, 3 hours at room temperature
Description: An MS assay was performed to evaluate the ability of the compounds to covalently modify DCN-1.
DCN1 protein, His-TEV-DCN1, were expressed in E. Coli. The His-tagged protein was first purified with an Ni-NTA column. The His-tag was cleaved using His-tag TEV protease and the His-tags were removed using a second Ni-NTA column. Protein purity was verified with SDS-PAGE and intact MS. DCN1 was dissolved in a buffer containing 25 mM Tris-HCl, 200 mM NaCl, and 1 mM DTT at 400 nM. 11 concentrations of compounds were added to the DCN1 solution and incubated at room temperature for 3 hours, unless otherwise specified. The reaction plates were quenched by adding 0.2% formic acid. […] The cartridge was re-equilibrated with loading buffer for 1 second before collection of the next sample. The Q-TOF was operated in TOF-only positive ionization mode set to the following parameters: Gas Temp=350 C, Drying Gas=7 l/min, Nebulizer=50 psi, Sheath Gas Temp=400 C, Sheath Gas Flow=12 l/min, Vcap=4000 V, Nozzle Voltage=1000 V, Fragmentor=125 V, Skimmer=65 V and Oct 1 RF Vpp=750V. Raw MS data files were deconvoluted and analyzed using the Agilent MassHunter Bioconfirm software package to identify both parent protein and expected compound adduct mass signatures.

Sequence of DCN1 protein (Q96GG9 whole entry): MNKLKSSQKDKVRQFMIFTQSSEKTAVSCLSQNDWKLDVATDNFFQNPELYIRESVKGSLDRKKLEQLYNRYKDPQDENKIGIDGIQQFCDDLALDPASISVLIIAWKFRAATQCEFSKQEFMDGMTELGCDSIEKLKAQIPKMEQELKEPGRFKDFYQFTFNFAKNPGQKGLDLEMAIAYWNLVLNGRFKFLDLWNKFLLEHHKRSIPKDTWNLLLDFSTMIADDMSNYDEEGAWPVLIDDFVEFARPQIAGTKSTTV

Compound | % Adduct Formation
CCN1C(=O)[C@@H](NC(=O)c2cccc(C(F)(F)F)c2)[C@@H](c2ccc(F)cc2)c2c(N3C=CC3=O)nn(-c3ccccc3)c21 (racemic) [Compound I-194, N-((4S,5S)-7-ethyl-4-(4-fluorophenyl)-6-oxo-3-(2-oxoazet-1(2H)-yl)-1-phenyl-4,5,6,7-tetrahydro-1H-pyrazolo[3,4-b]pyridine-5-yl)-3-(trifluoromethyl)benzamide] | + (MS Emax % adduct formation greater than or equal to 0.0 and less than or equal to 30.0)
C=C(C(=O)OCC)c1nn(-c2ccccc2)c2c1[C@H](c1ccc(F)cc1)[C@@H](NC(=O)c1cccc(C(F)(F)F)c1)C(=O)N2CC (racemic) [Compound I-195, rac-ethyl 2-((4R,5S)-7-ethyl-4-(4-fluorophenyl)-6-oxo-1-phenyl-5-(3-(trifluoromethyl)benzamido)-4,5,6,7-tetrahydro-1H-pyrazolo[3,4-b]pyridine-3-yl)acrylate] | + (MS Emax % adduct formation greater than or equal to 0.0 and less than or equal to 30.0)
CCN1C(=O)[C@@H](NC(=O)c2cccc(C(F)(F)F)c2)[C@@H](c2ccc(F)cc2)c2c(CNS(=O)(=O)CCl)nn(-c3ccccc3)c21 (racemic) [Compound I-198] | + (MS Emax % adduct formation greater than or equal to 0.0 and less than or equal to 30.0)
C#Cc1nn(-c2ccccc2)c2c1[C@H](c1ccc(F)cc1)[C@H](NC(=O)c1cccc(C(F)(F)F)c1)C(=O)N2CC (racemic) [Compound I-199, N-((4S,5S)-7-ethyl-3-ethynyl-4-(4-fluorophenyl)-6-oxo-1-phenyl-4,5,6,7-tetrahydro-1H-pyrazolo[3,4-b]pyridine-5-yl)-3-(trifluoromethyl)benzamide] | + (MS Emax % adduct formation greater than or equal to 0.0 and less than or equal to 30.0)
CCN1C(=O)[C@@H](NC(=O)c2cccc(C(F)(F)F)c2)[C@@H](c2ccc(F)cc2)c2c(CN(C)C(=O)C3=CCC3)nn(-c3ccccc3)c21 (racemic) [Compound I-200] | + (MS Emax % adduct formation greater than or equal to 0.0 and less than or equal to 30.0)
C=C(C(=O)O)c1nn(-c2ccccc2)c2c1[C@H](c1ccc(F)cc1)[C@@H](NC(=O)c1cccc(C(F)(F)F)c1)C(=O)N2CC (racemic) [Compound I-208, rac-2-((4R,5S)-7-ethyl-4-(4-fluorophenyl)-6-oxo-1-phenyl-5-(3-(trifluoromethyl)benzamido)-4,5,6,7-tetrahydro-1H-pyrazolo[3,4-b]pyridine-3-yl)acrylic acid] | + (MS Emax % adduct formation greater than or equal to 0.0 and less than or equal to 30.0)
CCN1C(=O)[C@@H](NC(=O)c2cccc(C(F)(F)F)c2)[C@@H](c2ccc(F)cc2)c2c([C@H](C)NS(=O)(=O)CCl)nn(-c3ccccc3)c21 (racemic) [Compound I-214] | + (MS Emax % adduct formation greater than or equal to 0.0 and less than or equal to 30.0)
CCN1C(=O)[C@@H](NC(=O)c2cccc(C(F)(F)F)c2)[C@@H](c2ccc(F)cc2)c2c(C(CCl)C(=O)N(C)C)nn(-c3ccccc3)c21 (mixture of isomers) [Compound I-216, rac-N-((4R,5R)-3-(3-chloro-1-(dimethylamino)-1-oxopropan-2-yl)-7-ethyl-4-(4-fluorophenyl)-6-oxo-1-phenyl-4,5,6,7-tetrahydro-1H-pyrazolo[3,4-b]pyridine-5-yl)-3-(trifluoromethyl)benzamide] | + (MS Emax % adduct formation greater than or equal to 0.0 and less than or equal to 30.0)
CCN1C(=O)[C@@H](NC(=O)c2cccc(C(F)(F)F)c2)[C@@H](c2ccc(F)cc2)c2c(CNC(=O)/C(C#N)=C/C3CC3)nn(-c3ccccc3)c21 (racemic) [Compound I-217] | + (MS Emax % adduct formation greater than or equal to 0.0 and less than or equal to 30.0)
CCN1C(=O)[C@@H](NC(=O)c2cccc(C(F)(F)F)c2)[C@@H](c2ccc(F)cc2)c2c(CN(C)C(=O)/C=C/C(F)(F)F)nn(-c3ccccc3)c21 (racemic) [Compound I-219] | + (MS Emax % adduct formation greater than or equal to 0.0 and less than or equal to 30.0)
CCN1C(=O)[C@@H](NC(=O)c2cccc(C(F)(F)F)c2)[C@@H](c2ccc(F)cc2)c2c(CNC(=O)/C=C/CN(C)C)nn(-c3ccccc3)c21 (racemic) [Compound I-220] | + (MS Emax % adduct formation greater than or equal to 0.0 and less than or equal to 30.0)
CCN1C(=O)[C@@H](NC(=O)c2cccc(C(F)(F)F)c2)[C@@H](c2ccc(F)cc2)c2c(CNC(=O)/C=C/C(F)(F)F)nn(-c3ccccc3)c21 (racemic) [Compound I-221] | + (MS Emax % adduct formation greater than or equal to 0.0 and less than or equal to 30.0)
CC#Cc1nn(-c2ccccc2)c2c1[C@H](c1ccc(F)cc1)[C@H](NC(=O)c1cccc(C(F)(F)F)c1)C(=O)N2CC (racemic) [Compound I-225, rac-N-((4R,5R)-7-ethyl-4-(4-fluorophenyl)-6-oxo-1-phenyl-3-(prop-1-yn-1-yl)-4,5,6,7-tetrahydro-1H-pyrazolo[3,4-b]pyridine-5-yl)-3-(trifluoromethyl)benzamide] | + (MS Emax % adduct formation greater than or equal to 0.0 and less than or equal to 30.0)
CCN1C(=O)[C@@H](NC(=O)c2cccc(C(F)(F)F)c2)[C@@H](c2ccc(F)cc2)c2c(CN(C)C(=O)COc3c(F)c(F)cc(F)c3F)nn(-c3ccccc3)c21 (racemic) [Compound I-228] | + (MS Emax % adduct formation greater than or equal to 0.0 and less than or equal to 30.0)
CCN1C(=O)[C@@H](NC(=O)c2cccc(C(F)(F)F)c2)[C@@H](c2ccc(F)cc2)c2c(CNC(=O)CCl)nn(-c3ccccc3)c21 (racemic) [Compound I-229] | + (MS Emax % adduct formation greater than or equal to 0.0 and less than or equal to 30.0)
CCN1C(=O)[C@@H](NC(=O)c2cccc(C(F)(F)F)c2)[C@@H](c2ccc(F)cc2)c2c(CNC(=O)C3=CCCC3)nn(-c3ccccc3)c21 (racemic) [Compound I-232] | + (MS Emax % adduct formation greater than or equal to 0.0 and less than or equal to 30.0)
CCN1C(=O)[C@@H](NC(=O)c2cccc(C(F)(F)F)c2)[C@@H](c2ccc(F)cc2)c2c(CN(C)C(=O)C3=CCCC3)nn(-c3ccccc3)c21 (racemic) [Compound I-233] | + (MS Emax % adduct formation greater than or equal to 0.0 and less than or equal to 30.0)
C/C=C/C(=O)N(C)Cc1nn(-c2ccccc2)c2c1[C@H](c1ccc(F)cc1)[C@H](NC(=O)c1cccc(C(F)(F)F)c1)C(=O)N2CC (racemic) [Compound I-234] | + (MS Emax % adduct formation greater than or equal to 0.0 and less than or equal to 30.0)
C#Cc1nn(-c2ccccc2)c2c1[C@H](c1ccc(F)cc1)[C@@H](NC(=O)c1cccc(C(F)(F)F)c1)C(=O)N2CC (racemic) [Compound I-235, N-((4S,5R)-7-ethyl-3-ethynyl-4-(4-fluorophenyl)-6-oxo-1-phenyl-4,5,6,7-tetrahydro-1H-pyrazolo[3,4-b]pyridine-5-yl)-3-(trifluoromethyl)benzamide] | + (MS Emax % adduct formation greater than or equal to 0.0 and less than or equal to 30.0)
C#CCNC(=O)c1nn(-c2ccccc2)c2c1[C@H](c1ccc(F)cc1)[C@H](NC(=O)c1cccc(C(F)(F)F)c1)C(=O)N2CC (racemic) [Compound I-242] | + (MS Emax % adduct formation greater than or equal to 0.0 and less than or equal to 30.0)
CCN1C(=O)[C@@H](NC(=O)c2cccc(C(F)(F)F)c2)[C@@H](c2ccc(F)cc2)c2c(C3CO3)nn(-c3ccccc3)c21 (relative stereo) [Compound I-196, N-((4RS,5RS)-7-ethyl-4-(4-fluorophenyl)-3-((S*)-oxiran-2-yl)-6-oxo-1-phenyl-4,5,6,7-tetrahydro-1H-pyrazolo[3,4-b]pyridine-5-yl)-3-(trifluoromethyl)benzamide] | + (MS Emax % adduct formation greater than or equal to 0.0 and less than or equal to 30.0)
CCN1C(=O)[C@H](NC(=O)c2cccc(C(F)(F)F)c2)[C@@H](c2ccc(F)cc2)c2c(C3CO3)nn(-c3ccccc3)c21 (relative stereo) [Compound I-207, N-((4RS,5SR)-7-ethyl-4-(4-fluorophenyl)-3-((S*)-oxiran-2-yl)-6-oxo-1-phenyl-4,5,6,7-tetrahydro-1H-pyrazolo[3,4-b]pyridine-5-yl)-3-(trifluoromethyl)benzamide] | + (MS Emax % adduct formation greater than or equal to 0.0 and less than or equal to 30.0)
CCN1C(=O)[C@@H](NC(=O)c2cccc(C(F)(F)F)c2)[C@@H](c2ccc(F)cc2)c2c(C(=O)N(C)[C@H](C#N)CCN(C)C)nn(-c3ccccc3)c21 (relative stereo) [Compound I-303, (4S,5S)—N-[(1S*)-1-cyano-3-(dimethylamino)propyl]-7-ethyl-4-(4-fluorophenyl)-N-methyl-6-oxo-1-phenyl-5-[3-(trifluoromethyl)benzamido]-4H,5H-pyrazolo[3,4-b]pyridine-3-carboxamide] | ++ (MS Emax % adduct formation greater than 30.0 and less than or equal to 80.0)
CCN1C(=O)[C@@H](NC(=O)c2cccc(C(F)(F)F)c2)[C@@H](c2ccc(F)cc2)c2c(CNC(=O)C(F)Cl)nn(-c3ccccc3)c21 (stereo in doubt) [Compound I-205] | + (MS Emax % adduct formation greater than or equal to 0.0 and less than or equal to 30.0)
